Laboratory results reported in ChEMBL document CHEMBL3992552, “Mechanisms of action and structure-activity relationships of cytotoxic flavokawain derivatives” (Bioorg Med Chem, 2017).
Active and inactive are the calls of the source. The rule behind the calls is not given here.

Key:
[1] = tested on: MDA-MB-231; test: Cell cycle arrest in human MDA-MB-231 cells harboring p53 mutant assessed as mitotic index at 10 uM measured after 48 hrs by Hoechst staining based fluorescence assay (reference value: 2.1); type: functional
[2] = tested on: MCF7; test: Cytotoxicity against human MCF7 assessed as cell viability after 48 hrs by Hoechst 33342 staining based assay; type: functional; conditions: MCF7, 48 h
[3] = tested on: HaCaT; test: Cytotoxicity against human HaCaT cells assessed as cell viability after 48 hrs by Hoechst 33342 staining based assay; type: functional
[4] = Selectivity index, ratio of IC50 for human fibroblasts to IC50 for human HuH7 cells
[5] = tested on: RL; test: Cytotoxicity against human RL assessed as cell viability after 48 hrs by Hoechst 33342 staining based assay; type: functional
[6] = tested on: Caco-2; test: Cell cycle arrest in human Caco2 cells assessed as accumulation at S phase at 10 uM measured after 48 hrs by Hoechst/BrdU staining based fluorescence assay (reference value: […]); type: functional
[7] = tested on: PC-3; test: Cell cycle arrest in human PC3 cells harboring p53 mutant assessed as mitotic index at 25 uM measured after 48 hrs by Hoechst staining based fluorescence assay (reference value: 2.5); type: functional
[8] = tested on: HCT-116; test: Cytotoxicity against human HCT116 cells assessed as cell survival at 50 uM after 48 hrs by Hoechst 33342 staining based assay relative to control; type: functional; conditions: HCT-116, 48 h, read-out: Survival
[9] = tested on: Caco-2; test: Cell cycle arrest in human Caco2 cells assessed as accumulation at S phase at 25 uM measured after 48 hrs by Hoechst/BrdU staining based fluorescence assay (reference value: […]); type: functional
[10] = tested on: NCI-H727; test: Cell cycle arrest in human NCI-H727 cells harboring p53 mutant assessed as mitotic index at 25 uM measured after 48 hrs by Hoechst staining based fluorescence assay (reference value: 1.1); type: functional
[11] = tested on: Huh-7; test: Cytotoxicity against human HuH7 cells assessed as cell viability after 48 hrs by Hoechst 33342 staining based assay; type: functional; conditions: Huh-7, 48 h
[12] = tested on: HaCaT; test: Cell cycle arrest in human HaCaT cells harboring […] p53 assessed as accumulation at S phase at 10 uM measured after 48 hrs by Hoechst/BrdU staining based fluorescence assay (reference value: 52.3%); type: functional
[13] = tested on: HCT-116; test: Cytotoxicity against human HCT116 cells assessed as cell viability after 48 hrs by Hoechst 33342 staining based assay; type: functional; conditions: HCT-116, 48 h
[14] = tested on: MDA-MB-231; test: Induction of apoptosis in human MDA-MB-231 cells harboring p53 mutant assessed as increase in late apoptosis at 2 times IC50 after 24 hrs by YoPro/propidium iodide/Hoechst staining based assay; type: functional, cell-based
[15] = tested on: MDA-MB-231; test: Cytotoxicity against human MDA-MB-231 cells assessed as cell survival at 50 uM after 48 hrs by Hoechst 33342 staining based assay relative to control; type: functional; conditions: MDA-MB-231, 48 h, read-out: Survival
[16] = tested on: PC-3; test: Cell cycle arrest in human PC3 cells harboring p53 mutant assessed as accumulation at S phase at 25 uM measured after 48 hrs by Hoechst/BrdU staining based fluorescence assay (reference value: 40.8%); type: functional
[17] = tested on: Huh-7; test: Cell cycle arrest in human HuH7 cells assessed as mitotic index at 10 uM measured after 48 hrs by Hoechst staining based fluorescence assay (reference value: 2.2); type: functional
[18] = tested on: HCT-116; test: Induction of apoptosis in human HCT116 cells harboring wild-type p53 assessed as upregulation of p21 measured after 48 hrs by Hoechst staining based fluorescence assay; type: functional, cell-based
[19] = Selectivity index, ratio of IC50 for human fibroblasts to IC50 for human RL cells
[20] = tested on: HaCaT; test: Cytotoxicity against human HaCaT cells assessed as cell survival at 50 uM after 48 hrs by Hoechst 33342 staining based assay relative to control; type: functional; conditions: read-out: Survival
[21] = Selectivity index, ratio of IC50 for human fibroblasts to IC50 for human Caco2 cells
[22] = tested on: PC-3; test: Induction of apoptosis in human PC3 cells harboring p53 mutant assessed as increase in cleaved caspase3 at 2 times IC50 after 48 hrs by Hoechst staining based assay; type: functional, cell-based
[23] = tested on: HCT-116; test: Cell cycle arrest in human HCT116 cells harboring wild-type p53 assessed as accumulation at S phase at 25 uM measured after 48 hrs by Hoechst/BrdU staining based fluorescence assay (reference value: 68.4%); type: functional
[24] = tested on: NCI-H727; test: Cell cycle arrest in human NCI-H727 cells harboring p53 mutant assessed as accumulation at S phase at 25 uM measured after 48 hrs by Hoechst/BrdU staining based fluorescence assay (reference value: 40.3%); type: functional
[25] = tested on: MCF7; test: Induction of apoptosis in human MCF7 cells harboring wild-type p53 assessed as upregulation of p21 measured after 48 hrs by Hoechst staining based fluorescence assay; type: functional, cell-based
[26] = tested on: MDA-MB-231; test: Cytotoxicity against human MDA-MB-231 cells assessed as cell viability after 48 hrs by Hoechst 33342 staining based assay; type: functional; conditions: MDA-MB-231, 48 h
[27] = tested on: NCI-H727; test: Cytotoxicity against human NCI-H727 cells assessed as cell survival at 50 uM after 48 hrs by Hoechst 33342 staining based assay relative to control; type: functional; conditions: NCI-H727, 48 h, read-out: Survival
[28] = tested on: NCI-H727; test: Cell cycle arrest in human NCI-H727 cells assessed as accumulation at G1/S phase by Hoechst staining based fluorescence assay; type: functional
[29] = tested on: HCT-116; test: Cell cycle arrest in human HCT116 cells harboring wild-type p53 assessed as mitotic index at 25 uM measured after 48 hrs by Hoechst staining based fluorescence assay (reference value: 2.3); type: functional
[30] = tested on: NCI-H727; test: Cell cycle arrest in human NCI-H727 cells harboring p53 mutant assessed as accumulation at S phase at 10 uM measured after 48 hrs by Hoechst/BrdU staining based fluorescence assay (reference value: 40.3%); type: functional
[31] = tested on: HCT-116; test: Cell cycle arrest in human HCT116 cells harboring wild-type p53 assessed as accumulation at S phase at 10 uM measured after 48 hrs by Hoechst/BrdU staining based fluorescence assay (reference value: 68.4%); type: functional
[32] = tested on: Fibroblast; test: Cytotoxicity against human fibroblasts assessed as cell viability after 48 hrs by Hoechst 33342 staining based assay
[33] = tested on: Caco-2; test: Cell cycle arrest in human Caco2 cells assessed as accumulation at M phase by Hoechst staining based fluorescence assay; type: functional
[34] = tested on: PC-3; test: Cytotoxicity against human PC3 cells assessed as cell survival at 50 uM after 48 hrs by Hoechst 33342 staining based assay relative to control; type: functional; conditions: PC-3, 48 h, read-out: Survival
[35] = tested on: HCT-116; test: Induction of apoptosis in human HCT116 cells harboring wild-type p53 assessed as upregulation of cyclinB1 measured after 48 hrs by Hoechst staining based assay; type: functional, cell-based
[36] = Selectivity index, ratio of IC50 for human fibroblasts to IC50 for human PC3 cells
[37] = tested on: HaCaT; test: Cell cycle arrest in human HaCaT cells harboring […] p53 assessed as mitotic index at 10 uM measured after 48 hrs by Hoechst staining based fluorescence assay (reference value: 2.6); type: functional
[38] = tested on: HaCaT; test: Cell cycle arrest in human HaCaT cells assessed as accumulation at M phase by Hoechst staining based fluorescence assay; type: functional
[39] = tested on: MDA-MB-231; test: Cell cycle arrest in human MDA-MB-231 cells harboring p53 mutant assessed as accumulation at S phase at 10 uM measured after 48 hrs by Hoechst/BrdU staining based fluorescence assay (reference value: 42.2%); type: functional

COc1cc(OC)c(C(=O)/C=C/c2ccc(Br)cc2)c(OC)c1
Activity_index [1]: 15
IC50 [2]: 9.5 µM
IC50 [3]: 9 µM
Ratio IC50 [4]: >3.6
IC50 [5]: 8.3 µM
Activity [6]: 36%
Activity_index [7]: 0
viability at 50 µM [8]: 0%
Activity [9]: 1.9%
Activity_index [10]: 0.7
IC50 [11]: 13.9 µM
Activity [12]: 24%
IC50 [13]: 6.2 µM
Activity [14]: Active
viability at 50 µM [15]: 6%
Activity [16]: 0.4%
Activity_index [17]: 10.4
Activity [18]: Active
Ratio IC50 [19]: >6
viability at 50 µM [20]: 6%
Ratio IC50 [21]: >7.4
Activity [22]: Active
Activity [23]: 68%
Activity [24]: 6%
Activity [25]: Active
IC50 [26]: 11.1 µM
viability at 50 µM [27]: 2%
Activity [28]: Active
Activity_index [29]: 0.6
Activity [30]: 39%
Activity [31]: 68%
IC50 [32]: > 20 µM
Activity [33]: Active
viability at 50 µM [34]: 10%
Activity [35]: Active
Ratio IC50 [36]: >7
Activity_index [37]: 19
Activity [38]: Active
Activity [39]: 42%

COc1cc(OC)c(C(=O)/C=C/c2ccccc2)c(OC)c1
Activity_index [1]: 21
IC50 [2]: 9.4 µM
IC50 [3]: 7.2 µM
Ratio IC50 [4]: >3.2
IC50 [5]: 6.9 µM
Activity [6]: 38%
Activity_index [7]: 1.2
viability at 50 µM [8]: 1%
Activity [9]: 24%
Activity_index [10]: 0.2
IC50 [11]: 15.5 µM
Activity [12]: 18%
IC50 [13]: 6.9 µM
Activity [14]: Active
viability at 50 µM [15]: 13%
Activity [16]: 1.7%
Activity_index [17]: 8.5
Activity [18]: Active
Ratio IC50 [19]: >7.2
viability at 50 µM [20]: 20%
Ratio IC50 [21]: >8.6
Activity [22]: Active
Activity [23]: 2.6%
Activity [24]: 4.5%
Activity [25]: Active
IC50 [26]: 12.9 µM
viability at 50 µM [27]: 1%
Activity [28]: Active
Activity_index [29]: 0.8
Activity [30]: 34%
Activity [31]: 19%
IC50 [32]: > 20 µM
Activity [33]: Active
viability at 50 µM [34]: 29%
Activity [35]: Active
Ratio IC50 [36]: >9.8
Activity_index [37]: 18.3
Activity [38]: Active
Activity [39]: 37%

COc1cccc(/C=C/C(=O)c2c(OC)cc(OC)cc2OC)c1
Activity_index [1]: 25
IC50 [2]: 9.4 µM
IC50 [3]: 5.3 µM
Ratio IC50 [4]: >5.6
IC50 [5]: 5.9 µM
Activity [6]: 31%
Activity_index [7]: 0.3
viability at 50 µM [8]: 0%
Activity [9]: 6%
Activity_index [10]: 0.1
IC50 [11]: 8.9 µM
Activity [12]: 19%
IC50 [13]: 4.3 µM
Activity [14]: Active
viability at 50 µM [15]: 4%
Activity [16]: 0.9%
Activity_index [17]: 12.3
Activity [18]: Active
Ratio IC50 [19]: >8.5
viability at 50 µM [20]: 18%
Ratio IC50 [21]: >12.8
Activity [22]: Active
Activity [23]: 0.6%
Activity [24]: 5.1%
Activity [25]: Active
IC50 [26]: 8.7 µM
viability at 50 µM [27]: 1%
Activity [28]: Active
Activity_index [29]: 1.2
Activity [30]: 37%
Activity [31]: 20%
IC50 [32]: > 20 µM
Activity [33]: Active
viability at 50 µM [34]: 19%
Activity [35]: Active
Ratio IC50 [36]: >16.1
Activity_index [37]: 17.5
Activity [38]: Active
Activity [39]: 43%
